Data on 13 compounds can be found in patent US20010056184A1, “Pipecolinic acid derivatives, method of manufacturing the same and therapeutic agents containing these compounds” (priority 2000, published 2001).

Holding throughout (type): biochemical
Test [1] concerns the target T1, human fibroblasts derived MMP-1 (type I collagenase) (Homo sapiens, UniProt P03956).
T1 construct: human fibroblasts derived MMP-1 (Yagai Co. Ltd.) as enzyme; purchased Yagai Co. Ltd; host or cells: human fibroblasts
T1 sequence (P03956 100-469): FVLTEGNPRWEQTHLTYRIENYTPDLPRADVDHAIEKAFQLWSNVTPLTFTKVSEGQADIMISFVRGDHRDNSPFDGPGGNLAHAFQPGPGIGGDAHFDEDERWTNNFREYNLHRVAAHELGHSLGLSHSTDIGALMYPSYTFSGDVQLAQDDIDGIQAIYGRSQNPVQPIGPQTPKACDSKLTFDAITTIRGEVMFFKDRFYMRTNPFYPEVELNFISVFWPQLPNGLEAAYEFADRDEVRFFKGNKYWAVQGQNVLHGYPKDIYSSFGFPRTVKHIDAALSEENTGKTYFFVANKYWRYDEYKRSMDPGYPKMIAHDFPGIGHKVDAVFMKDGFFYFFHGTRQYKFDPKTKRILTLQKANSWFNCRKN
Put plainly: MMP-1 (type I collagenase) inhibitory activities, fluorogenic substrate enzyme assay. Particulars: for inhibition at 10 µM: at 10^−5M, NE means no effect, read-out: MMP-1 inhibition percent; for IC50: 37° C., 4 h, substrate 10 μM. The procedure: Examination 1: MMP-1 (type I collagenase) inhibitory activities.
Inhibitory activities of MMP-1 (type I collagenase) activities were estimated by enzyme assay using human fibroblasts derived MMP-1 (Yagai Co. Ltd.) as enzyme, and MOCAc-Pro-Leu-Gly-Leu-A2pr(Dnp)-Ala-Arg-NH2 (Peptide Research Center, 3163-v) as substrate. Thus, MMP-1 (0.01 U/ml), test compound (10^−10˜10^−5 M), and the substrate (10 μM) were incubated in 50 mM Tris-HCl buffer (pH 7.4) containing 0.2M NaCl, 10 mM CaCl2, 0.02% NaN3, and 0.05% Brij 35 at 37° C. for 4 h. The reaction was stopped by adding of 4 volumes of sodium acetate buffer (pH 4.0), and the degradation of substrate was calculated by measurement with a fluorescence intensity (λ ex 328 nm, λ em 393 nm). Inhibition of degradation of substrate in the presence of compound was determined by comparison with the degradation percent of substrate in the absence of compound, and concentration of 50% inhibition (IC50 value) was calculated.

The target in test [2] is T2, Δ MT1-MMP (Δ MMP-14) (Homo sapiens, UniProt P50281).
T2 construct: ProMT1-MMP cDNA encoded extracellular domain of pro Δ MT1-MMP was tranfected E. coli BL21DE3; made in house; host or cells: E. coli BL21DE3 (inclusion bodies, 8M urea, ion exchange)
Put plainly: Δ MT1-MMP (Δ MMP-14) inhibitory activities, fluorogenic substrate enzyme assay. Particulars: 37° C., 30 min, substrate 10 μM; read-out: ΔMMP-14 IC50. The text has this:
Examination 3: Δ MT1-MMP (Δ MMP-14) inhibitory activities.
ProMT1-MMP cDNA encoded extracellular domain of pro Δ MT1-MMP was tranfected E. coli BL21DE3, pro Δ MT1-MMP collected as inclusion body was solved using 8M urea, and it was pulified by ion exchenge column chlomatography. Inhibition of enzyme activities were estimated by enzyme assay using activated Δ MT1-MMP, obtained from activation of pro Δ MT1-MMP by 10 μ/ml tripsine, and MOCAc-Pro-Leu-Gly-Leu-A2pr(Dnp)-Ala-Arg-NH2 (Peptide Research Center, 3163-v) as substrate. Thus, Δ MT1-MMP, test compound (several concentrations), and the substrate (10 μM) were incubated in 50 mM Tris - HCl buffer (pH 7.4) containing 0.2M NaCl, 10 mM CaCl2, 0.02% NaN3, 0.05% Brij 35, and 10 μM leuipeputine at 37° C. for 30 min. The reaction was stopped by adding of 4 volumes of sodium acetate buffer (pH 4.0), and the degradation of substrate was calculated by measurement with a fluorescence intensity (λ ex 328 nm, λ em 393 nm). Inhibition of degradation of substrate in the presence of compound was determined by comparison with the degradation of substrate in the absence of compound, and concentration of 50% inhibition (IC50 value) was calculated.

For test [3], the target named is T3, MMP-2 (gelatinase A) (Homo sapiens, UniProt P08253).
T3 construct: made in house; host or cells: COS-1 cells (secreted into culture medium)
T3 sequence (P08253 110-660): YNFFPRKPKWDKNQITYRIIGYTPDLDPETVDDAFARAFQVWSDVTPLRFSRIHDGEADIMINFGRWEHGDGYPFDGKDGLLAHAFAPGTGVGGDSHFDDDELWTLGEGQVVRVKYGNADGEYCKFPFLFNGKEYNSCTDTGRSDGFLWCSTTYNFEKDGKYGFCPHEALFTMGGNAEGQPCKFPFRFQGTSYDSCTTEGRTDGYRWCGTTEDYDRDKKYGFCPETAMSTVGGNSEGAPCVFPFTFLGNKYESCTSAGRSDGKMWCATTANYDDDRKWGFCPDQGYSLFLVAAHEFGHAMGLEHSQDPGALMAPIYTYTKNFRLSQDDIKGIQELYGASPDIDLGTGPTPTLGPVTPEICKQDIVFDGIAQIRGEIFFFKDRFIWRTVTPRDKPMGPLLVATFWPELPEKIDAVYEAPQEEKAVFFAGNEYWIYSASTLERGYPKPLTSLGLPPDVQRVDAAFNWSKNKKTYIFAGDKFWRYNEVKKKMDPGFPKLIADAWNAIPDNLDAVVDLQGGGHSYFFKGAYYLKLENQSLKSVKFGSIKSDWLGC
Put plainly: MMP-2 (gelatinase A) inhibitory activities, fluorogenic substrate enzyme assay. Particulars: 42° C., 2 h, substrate 10 μM. The procedure:
(§1) Examination 2: MMP-2 (gelatinase A) and MMP-9 (gelatinase B) inhibitory activities.
(§2) Pro MMP-2 was obtained from culture medium separated from human pro-MMP-2 cDNA tranfected COS-1 cells. Pro MMP-2 activated by 1 mM (4-aminophenyl) mercury acetic acid and MMP-9, derived human fibrosarcome (Yagai Co. Ltd.), were used as enzyme respectively. Inhibition of both enzyme activities were estimated by enzyme assay using MOCAc-Pro-Leu-Gly-Leu-A2pr(Dnp)-Ala-Arg-NH2 (Peptide Research Center, 3163-v) as substrate. Thus, MMP-2 or MMP-9 (0.01 U/ml), test compound (several concentrations), and the substrate (10 μM) were incubated in 50 mM Tris - HCl buffer (pH 7.4) containing 0.2M NaCl, 10 mM CaCl2, 0.02% NaN3, and 0.05% Brij 35 at 42° C. for 2 h (MMP-2), 3 h (MMP-9) respectively. Inhibition of degradation of substrate in the presence of compound was determined by comparison with the degradation of substrate in the absence of compound, and concentration of 50% inhibition (IC50 value) was calculated.

Test [4] concerns the target T4, MMP-9 (gelatinase B) (Homo sapiens, UniProt P14780).
T4 construct: MMP-9, derived human fibrosarcome (Yagai Co. Ltd.), were used as enzyme respectively; purchased Yagai Co. Ltd; host or cells: human fibrosarcoma
In words: MMP-9 (gelatinase B) inhibitory activities, fluorogenic substrate enzyme assay. Particulars: 42° C., 3 h, substrate 10 μM. The procedure:
as §1, §2

T4 sequence (P14780 94-707): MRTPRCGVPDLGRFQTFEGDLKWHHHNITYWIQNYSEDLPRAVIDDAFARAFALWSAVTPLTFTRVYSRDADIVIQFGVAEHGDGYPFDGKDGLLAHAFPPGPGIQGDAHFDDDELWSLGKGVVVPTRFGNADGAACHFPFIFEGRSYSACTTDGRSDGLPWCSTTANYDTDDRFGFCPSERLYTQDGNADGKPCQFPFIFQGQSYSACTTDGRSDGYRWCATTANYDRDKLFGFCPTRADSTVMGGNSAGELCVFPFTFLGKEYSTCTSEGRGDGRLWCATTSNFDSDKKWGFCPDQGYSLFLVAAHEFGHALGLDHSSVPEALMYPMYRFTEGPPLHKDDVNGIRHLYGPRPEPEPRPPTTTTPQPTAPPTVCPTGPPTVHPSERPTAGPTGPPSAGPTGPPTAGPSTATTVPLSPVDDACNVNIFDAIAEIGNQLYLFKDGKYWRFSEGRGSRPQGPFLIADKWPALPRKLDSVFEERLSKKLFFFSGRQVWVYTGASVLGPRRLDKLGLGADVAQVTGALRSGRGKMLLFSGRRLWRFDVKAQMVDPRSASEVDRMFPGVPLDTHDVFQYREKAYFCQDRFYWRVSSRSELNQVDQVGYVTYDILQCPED

The term inhibition denotes the share of the control response that was lost under treatment. One may read the IC50 as the concentration needed to halve the response being measured. Take `COc1ccc(-c2ccc(S(=O)(=O)N3CC[C@@H](NC(=O)c4ccccc4)C[C@@H]3C(=O)NO)cc2)cc1` [Compound 59, (2R, 4R)-4-Benzoylamino-2-hydroxyaminocarbonyl-1-[4-(4-methoxyphenyl)benzenesulfonyl]-piperidine]: in test [1], the inhibition at 10 µM came out at 57.6%. Besides, the values for the IC50 in test [2], in test [3] and in test [4] were 95 nM, 180 nM and 11 nM, respectively.

In the case of `O=C(N[C@@H]1CCN(S(=O)(=O)c2ccc(-c3ccc(O)cc3)cc2)[C@@H](C(=O)NO)C1)c1ccccc1` [Compound 60, (2R, 4R)-4-Benzoylamino-2-hydroxyaminocarbonyl-1-[4-(4-hydroxyphenyl)benzenesulfonyl]-piperidine], the IC50 in test [1] was 4900 nM; in test [2], 130 nM; in test [3], 2.9 nM; in test [4], 890 nM.

Regarding `CC(C)CCC(=O)N[C@@H]1CCN(S(=O)(=O)c2ccc(O)cc2)[C@@H](C(=O)NO)C1` [Compound 63], the IC50 stood at 510 nM in test [1], 17 nM in test [2], 28 nM in test [3] and 31 nM in test [4].

Take `CC(=O)N[C@@H]1CCN(S(=O)(=O)c2ccc(-c3ccc(Cl)cc3)cc2)[C@@H](C(=O)NO)C1` [Compound 72, (2R, 4R)-4-Acetylamino-1-[4-(4-chlorohenyl)benzenesulfonyl]-2-hydroxyaminocarbonyl-piperidine]: the IC50 in test [1] was determined as 37 nM; in test [2], 23 nM; in test [3] it was 3 nM; in test [4], 1.1 nM.

On to `COc1ccc(-c2ccc(S(=O)(=O)N3CC[C@@H](NC(=O)c4ccc([N+](=O)[O-])cc4)C[C@@H]3C(=O)NO)cc2)cc1` [Compound 75, (2R, 4R)-2-Hydroxyaminocarbonyl-1-[4-(4-methoxyphenyl)benzenesulfonyl]-4-(4-nitrobenzoylamino)-piperidine], for which the IC50 in test [1] amounted to 2500 nM; in test [2] it was 890 nM; in test [3], 15 nM; in test [4], 16 nM.

As to `CC(=O)N[C@@H]1CCN(S(=O)(=O)c2ccc(-c3ccc(O)cc3)cc2)[C@@H](C(=O)NO)C1` [Compound 65, (2R, 4R)-4-Acetylamino-2-hydroxyaminocarbonyl-1-[4-(4-hydroxyphenyl)benzenesulfonyl]-piperidine], the IC50 in test [1] turned out to be 870 nM; in test [2], 23 nM; in test [3] it was 4.8 nM; in test [4] it was 51 nM.

Turning to `CC(C)CCC(=O)N[C@@H]1CCN(S(=O)(=O)c2ccc(-c3ccc([N+](=O)[O-])cc3)cc2)[C@@H](C(=O)NO)C1` [Compound 67, (2R, 4R)-2-Hydroxyaminocarbonyl-4-(4-methylpentanoylamino)-1-[4-(4-nitrophenyl)benzenesulfonyl]-piperidine], the IC50 in test [1] was determined as 1200 nM; in test [2] it was 1500 nM; in test [3] it was 22 nM; in test [4], 36 nM.

Consider `COc1ccc(-c2ccc(S(=O)(=O)N3CC[C@@H](NC(=O)CCC(C)C)C[C@@H]3C(=O)NO)cc2)cc1` [Compound 49, (2R, 4R)-2-Hydroxyaminocarbonyl-1-[4-(4-methoxyphenyl)benzenesulfonyl]-4-(4-methylpentanoylamino)-piperidine], for which the IC50 came out at 2600 nM in test [1], 130 nM in test [2], 0.25 nM in test [3] and 0.26 nM in test [4].

On to `O=C(N[C@@H]1CCN(S(=O)(=O)c2ccc(-c3ccc(Cl)cc3)cc2)[C@@H](C(=O)NO)C1)c1ccccn1` [Compound 74, (2R, 4R)-1-[4-(4-Chlorophenyl)benzenesulfonyl]-2-hydroxyaminocarbonyl-4-(2-pyridinecarbonylamino)-piperidine], for which the inhibition at 10 µM in test [1] amounted to 48.9%. The half-maximal inhibitory concentration (IC50) in test [2] was found to be 74 nM; in test [3], 5.2 nM; in test [4], 13 nM.

On to `CC(C)CCC(=O)N[C@@H]1CCN(S(=O)(=O)c2ccc(-c3ccc(O)cc3)cc2)[C@@H](C(=O)NO)C1` [Compound 57, (2R, 4R)-2-Hydroxyaminocarbonyl-1-[4-(4-hydroxyphenyl)benzenesulfonyl]-4-(4-methylpentanoylamino) piperidine], for which the IC50 in test [1] was found to be 460 nM; in test [2], 100 nM; in test [3] it was 1.8 nM; in test [4], 11 nM.

`COc1ccc(-c2ccc(S(=O)(=O)N3CC[C@@H](NCCCC(C)C)C[C@@H]3C(=O)NO)cc2)cc1` [Compound 61, (2R, 4R)-2-Hydroxyaminocarbonyl-1-[4-(4-methoxyphenyl)benzenesulfonyl]-4-(4-methylpentylamino)-piperidine]: the inhibition at 10 µM in test [1] is 44.6%. The IC50 in test [2] was determined as 49 nM; in test [3], 2.7 nM; in test [4], 19 nM.

On to `COc1ccc(S(=O)(=O)N2CC[C@@H](NC(C)=O)C[C@@H]2C(=O)NO)cc1` [Compound 66, (2R, 4R)-4-Acetylamino-2-hydroxyaminocarbonyl-1-(4-methoxybenzenesulfonyl)-piperidine], for which the IC50 in test [1] came to 530 nM; in test [2], 2.1 nM; in test [3], 4.2 nM; in test [4], 8.6 nM.

Regarding `COc1ccc(-c2ccc(S(=O)(=O)N3CC[C@@H](NCc4ccccc4)C[C@@H]3C(=O)NO)cc2)cc1` [Compound 56, (2R, 4R)-4-Benzylamino-2-hydroxyaminocarbonyl-1-[4-(4-methoxyphenyl)benzenesulfonyl]-piperidine], the IC50 in test [1] worked out at 1300 nM; in test [2], 16 nM; in test [3] it was 0.49 nM; in test [4], 0.36 nM.
